# Data: patent publication US20170334919A1, “2-((4-AMINO-3-(3-FLUORO-5-HYDROXYPHENYL)-1H-PYRAZOLO[3,4-D]PYRIMIDIN-1 -YL)METHYL)-3-(2-(TRIFLUORO-MET HYL)BENZYL)QUINAZOLIN-4(3H)-ONE DERIVATIVES AND THEIR USE AS PHOSPHOINOSITIDE 3-KINASE INHIBITORS” (RESPIVERT LTD., priority 2013, published 2017)
# Experiments:
# [1] = test system: PI3K δ (Akt phosphorylation in d-U937 cells); assay: PI3K δ cell based assay: H2O2-induced Akt phosphorylation in d-U937 cells; conditions: Homo sapiens, dU937; inhibition of induced Akt phosphorylation; read-out: Cellular Activity REC50 values in d-U937 cells, H2O2 stimulus
# Procedure: As a means of assessing PI3K δ activation in response to stimuli, the phosphorylation status of the protein, Akt, a downstream product of PI3Kδ, signaling was determined.
# U937 cells, obtained from a human, leukemic, monocyte lymphoma cell line, were differentiated to macrophage-type cells by incubation with PMA (100 ng/mL) for 48 to 72 hr. Cells were then pre-incubated with either the test compound or vehicle for 2 hr and were then stimulated briefly by exposure to H2O2 (10 mM, 5-7 min) and the reaction stopped by replacing the media with 4% formaldehyde solution. […] After washing with buffer (PBS containing 0.1% Triton X-100), cells were incubated with an HRP-conjugated secondary antibody (Dako) and the resultant signal was determined colorimetrically (OD: 450 nm with a reference wavelength of 655 nm) using TMB substrate (substrate reagent pack supplied by R&D Systems, Inc.).
# This reaction was stopped by the addition of H2SO4 solution (100 μL). […] After washing with buffer (PBS containing 0.1% Triton X-100) 1% SDS (100 μL) was added to each well and the plates were shaken lightly for 1 hr prior to measuring the absorbance at 595 nm (Varioskan® Flash, Thermo-Fisher Scientific). The measured OD450-655 readings were corrected for cell number by dividing the OD450-655 by the D595 readings. The ratio of pAkt signal to total Akt signal was used to quantitate the extent of PI3K δ activation. […]
# [2] = test system: poly-I:C-induced cell accumulation in mice airways; assay: Poly-I:C-induced cell accumulation in mice; format: in vivo, A/J mice
# Procedure: Specific pathogen-free A/J mice (males, 5 weeks old) were dosed with poly (I:C)-LMW (1 mg/mL, 40 μL) (InvivoGen, San Diego, Calif., USA) intranasally twice daily for 3 days under anaesthasia (3% isoflurane). Test substances were dosed intra-nasally (50 μL in 10% DMSO/isotonic saline vehicle) 2 hr before each poly-I:C treatment. At 24 hr after the last poly-I:C challenge, animals were anesthetized, the trachea was cannulated and bronchial alveolar lavage (BAL) was obtained by instilling into and then withdrawing from the lungs, isotonic saline (100 mL/kg). Total cell numbers in the BALF samples were measured using a haemocytometer under a phase-contrast microscope.
# The proportions of alveolar macrophages and neutrophils were determined by FACS analysis using anti-mouse MOMA2-FITC (macrophage) or anti-mouse 7/4-FITC (neutrophil). Cells were suspended in PBS and incubated with anti-MOMA2-FITC (2 μg/mL, Catalogue no SM065F, Acris Antibodies GmbH, Herford, Germany) or anti-7/4-FITC (2 μg/mL, Catalogue no CL050F, Acris Antibodies GmbH, Herford, Germany) for 30 min at 30° C., and then counterstained with propidium iodide (2 μg/mL) to allow exclusion of necrotic cells. The cells were washed with PBS, and transferred to FACS tubes. Samples was set in a flow cytometer (ALTRA II; Beckman Coulter Japan, Tokyo, Japan), and a single-parameter FL2 [PMT2] (FITC) histogram with log x-axis was plotted to illustrate relative intensity of FITC. Data files were stored for subsequent analysis using Kaluza analysis software (ver. 1.2) to calculate the proportion of each cell type.
# [3] = test system: cigarette smoke-induced cell accumulation and biomarkers in murine BALF; assay: Cigarette smoke model; format: in vivo, A/J mice
# Procedure: A/J mice (males, 5 weeks old) were exposed to cigarette smoke (4% cigarette smoke, diluted with compressed air) for 30 min/day for 11 days using a Tobacco Smoke Inhalation Experiment System for small animals (Model SIS-CS; Sibata Scientific Technology, Tokyo, Japan). Test substances were administered once daily for 3 days after the final cigarette smoke exposure (intra-nasal dose comprising 35 μL of solution in 50% DMSO/isotonic saline).
# At 12 hr after administration of the last dose, animals were anesthetized, the trachea was cannulated and bronchial alveolar lavage (BAL) was carried out by the instillation into and then withdawal from the lungs, of PBS (100 mL/kg). Total cell numbers in the BALF samples were measured using a haemocytometer under a phase-contrast microscope. The proportions of alveolar macrophages and neutrophils were determined by FACS analysis using anti-mouse MOMA2-FITC (macrophage) or anti-mouse 7/4 (neutrophil).
# Cells were suspended in PBS and were incubated with anti-MOMA2-FITC (2 μg/mL, Catalogue no SM065F, Acris Antibodies GmbH, Herford, Germany) or anti-7/4-FITC (2 μg/mL, Catalogue no CL050F, Acris Antibodies GmbH, Herford, Germany) for 30 min at 30° C., and also counterstained with propidium iodide (2 μg/mL) to allow exclusion of necrotic cells. The cells were washed with PBS, and transferred to FACS tubes. Samples was set in a flow cytometer (ALTRA II; Beckman Coulter Japan, Tokyo, Japan), and a single-parameter FL2 [PMT2] (FITC) histogram with log x-axis was plotted to illustrate relative intensity of FITC.
# Data files are stored for subsequent analysis using Kaluza analysis software (ver. 1.2) to calculate the proportion of each cell type. The levels of CXCL1(KC), MCP1, TNFα, IL-17 or osteopontin in BALF were determined using Quentikine® mouse KC, MCP1, TNFα, IL-17 or osteopontin ELISA kit (R&D systems, Inc., Minneapolis, Minn., USA). The presence of malondialdehyde was measured using OxiSelect® TBARS Assay Kit (MDA Quantitation; Cell Biolabs Inc, San Diego, Calif., USA).
# [4] = 0.002 mg/mL intra-nasal + Poly I:C
# [5] = 0.02 mg/mL intra-nasal + Poly I:C
# [6] = 0.2 mg/mL intra-nasal + Poly I:C
# [7] = CS + Compound (I) 0.02 mg/mL intra-nasal
# [8] = CS + Compound (I) 0.2 mg/mL intra-nasal
# [9] = CS + Compound (I) 2 mg/mL intra-nasal
compound,measurement,setting,value
"COCCOCCOCC#Cc1cccc2nc(Cn3nc(-c4cc(O)cc(F)c4)c4c(N)ncnc43)n(Cc3ccccc3C(F)(F)F)c(=O)c12 [Compound (I), 2-((4-Amino-3-(3-fluoro-5-hydroxyphenyl)-1H-pyrazolo[3,4-d]pyrimidin-1-yl)methyl)-5-(3-(2-(2-methoxyethoxy)ethoxy)prop-1-yn-1-yl)-3-(2-(trifluoromethyl)benzyl)quinazolin-4(3H)-one]",EC50,[1],7.4 nM
same,"Cell numbers in BALF, Macrophages, % inhibition",[2]; [4],49%
same,"Cell numbers in BALF, Neutrophils, % inhibition",[2]; [4],0.3 (43) %
same,"Cell numbers in BALF, Macrophages, % inhibition",[2]; [5],0.3 (69) %
same,"Cell numbers in BALF, Neutrophils, % inhibition",[2]; [5],65%
same,"Cell numbers in BALF, Macrophages, % inhibition",[2]; [6],0.3 (79) %
same,"Cell numbers in BALF, Neutrophils, % inhibition",[2]; [6],0.2 (77) %
same,"potency versus compound A, poly-I:C-induced macrophage and neutrophil accumulation into BALF","[2]; direct comparison, FIG. 1",significantly greater potency than compound A
same,"Cell numbers in BAL, Macrophages, % inhibition",[3]; [7],32%
same,"Cell numbers in BAL, Neutrophils, % inhibition",[3]; [7],0.2 (26) %
same,"Cell numbers in BAL, Macrophages, % inhibition",[3]; [8],0.2 (63) %
same,"Cell numbers in BAL, Neutrophils, % inhibition",[3]; [8],54%
same,"Cell numbers in BAL, Macrophages, % inhibition",[3]; [9],0.3 (79) %
same,"Cell numbers in BAL, Neutrophils, % inhibition",[3]; [9],0.1 (68) %
same,"potency versus compound A, cigarette-smoke induced cell accumulation in murine BALF","[3]; contemporaneous study, FIG. 2",more potent inhibitor of cigarette-smoke induced cell accumulation in murine BALF than is compound A
